This note sets out measurements from US20260015341A1, “PI3K INHIBITOR, PREPARATION METHOD THEREFOR, AND USE THEREOF” (HINOVA PHARMACEUTICALS INC., priority 2022, published 2026).

The subject of series [1] is MCF-10A cells. The series can be described thus: Inhibitory effects on the proliferation of MCF-10A cells (CCK8). It is filed as cell-based. The following applies: Homo sapiens, 144 h, 6 days. The method in brief:
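MCF-10A cells seeded at 500 cells/well, cultured 24 h, then exposed to 9-point 3-fold dilutions from 10 μM final for 6 days at 37° C., 5% CO2. Viability by CCK8, 2–3 h, OD450 read; IC50 reported.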

In series [2] the test system is T47D cells. The series can be described thus: Inhibitory effects on the proliferation of T47D cells (CellTiter-Glo). Format: cell-based. The following applies: Homo sapiens, 168 h, 7 days. The method in brief:
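T47D cells (1000/well, RPMI 1640 + 10% FBS) cultured 24 h, then exposed 7 days at 37 °C to 9 compound concentrations, 3-fold dilutions from 10 μM final. Viability by CellTiter-Glo luminescence; IC50 derived.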
A general note: ATP-based viability assays read luminescence as a measure of living cells.

The nature of series [3]: Pharmacokinetics in beagle dogs. The following applies: beagle dog; for AUC / half-life / clearance / Vd: male, plasma; for Vd: read-out: VSS. Format: in vivo. As to the method: Experimental Example 5: The Pharmacokinetics of the Compound According to the Present Invention in Beagle Dogs
9 healthy adult male beagle dogs (three for each administration route of each compound) were fasted overnight (>12 h) before gavage, with free access to water; 4 hours after administration, rats could take food, and were administered via tail vein injection and gastric lavage, respectively. At different time points, forelimb venous blood sample was collected and anti-coagulated, wherein the anticoagulant was EDTA-K2 (the sample was placed in an ice bath after blood collection). The plasma was separated by centrifugation at 3200 g for 10 min, and stored at −70° C. for testing. The plasma concentration of compounds was determined by LC-MS/MS method.
The plasma concentration of compound at all time points was used to calculate the main pharmacokinetic parameters with Winnolin 8.3 non-compartmental model.
The area under the concentration-time curve AUCall value: calculated using the trapezoidal method; AUCinf=AUCall+Ct/ke, Ct is the plasma concentration at the last measurable time point, and ke is the elimination rate constant;
The clearance rate CL=D/AUCinf (D is the administration dosage);
The volume of distribution at steady state Vss=CL×MRT. The mean retention time MRT=AUMC/AUC;

The target in series [4] is PI3Kα[WT]/[E542K]/[E545K]/[H1047R]/PI3Kβ/γ/δ. Briefly: PI3K enzyme activity assay (ADP-Glo). The note with it: PI3K kinase reaction, isoform not given. Format: biochemical. As to the method:
Experimental Example 1: PI3Kα[WT]/[E542K]/[E545K]/[H1047R]/PI3Kβ/γ/δ Enzyme Activity Assay
PI3Kα[WT], PI3Kα[E542K], PI3Kα[E545K], PI3Kα[H1047R], PI3Kβ, PI3Kγ and PI3Kδ kinase reaction was performed in 384-well plate (PerkinElmer, #6008280), with a reaction system of 4 μL. PI3Kα[WT] enzyme solution (Promega, #V1721) or PI3Kα[E542K] enzyme solution (CarnaBio, #11-413-20N) or PI3Kα[E545K] enzyme solution (CarnaBio, #11-414-20N) or PI3Kα[H1047R] enzyme solution (Promega, #V1741) or PI3Kβ enzyme solution (Promega, #V1751) or PI3Kγ enzyme solution (ThermoFisher, #PV4786) or PI3Kδ enzyme solution (ThermoFisher, #PV6451) were added to 384-well plate, and then gradiently diluted compounds were added (starting at a final concentration of 10 μM, 3-fold dilution, 10 doses), followed by adding PIP2: 3PS (Promega, #V1701) and ATP solution (Promega, #V915B) to the plate. After incubation at 25° C. for 1 h, ADP-Glo reagent buffer (Promega, #V9102) was added to each well. The plate was sealed and incubated at 25° C. for 40 min, and then 10 μL of ADP-Glo detection buffer (Promega, #V9102) was added to each well. After incubating at 25° C. for 40 min, the chemiluminescence value was read using an instrument.
The experimental results are shown in the ADP Glo IC50 column in Table 2.
For orientation: ADP-Glo turns the ADP formed in a reaction into a luminescent signal.

The mark [5] stands for this setting: po, ig (intragastric), 10 mg/kg.

What is called IC50 is the concentration needed to halve the response being measured. A higher IC50 goes with weaker potency. One may read the AUC as concentration integrated over time. Read a low AUC as low exposure. One may read the half-life as the time in which the quantity being followed falls by half. Broadly, the clearance is the volume of plasma or blood freed of the substance per unit of time. Read a low clearance as a low capacity for elimination. As to `Cc1cc([C@@H](C)Nc2ccc(Cl)nc2C(=O)O)c2nc(-c3ccc(F)cn3)n(C)c(=O)c2c1` [Compound 66, (R)-6-chloro-3-((1-(2-(5-fluoropyridin-2-yl)-3,6-dimethyl-4-oxo-3,4-dihydroquinazolin-8-yl)ethyl)amino)pyridinecarboxylic Acid], the values for the IC50 in series [1], in series [2] and in series [4] were over 5000 nM, under 1000 nM and under 1000 nM, respectively. The F is recorded as 74.5% in series [3] (ig (intragastric), 3 mg/kg) and 49.1% in series [3] (ig (intragastric), 10 mg/kg). Besides, the AUC in series [3] (po, ig (intragastric), 3 mg/kg) was 4910 ng·h/mL; in series [3] (setting [5]), 11000 ng·h/mL; in series [3] (iv, 1 mg/kg), 2210 ng·h/mL. The half-life in series [3] (po, ig (intragastric), 3 mg/kg) was 3.81 h; in series [3] (setting [5]) it was 7.7 h; in series [3] (iv, 1 mg/kg), 3.34 h. In series [3] (iv, 1 mg/kg), the clearance worked out at 7.77 mL/min/kg. For the same compound, the Vd in series [3] (iv, 1 mg/kg) amounted to 0.879 L/kg.
For the compound `C[C@@H](Nc1ccc(Cl)nc1C(=O)O)c1cc(F)cc2c(=O)n(C)c(-c3ccc(F)cn3)nc12` [Compound 74], the IC50 is over 5000 nM in series [1], under 1000 nM in series [2] and under 1000 nM in series [4]. Besides, the F in series [3] (ig (intragastric), 3 mg/kg) is 52.4%; in series [3] (ig (intragastric), 10 mg/kg), 62.8%. The AUC was determined as 3710 ng·h/mL in series [3] (po, ig (intragastric), 3 mg/kg); 13700 ng·h/mL in series [3] (setting [5]); 2390 ng·h/mL in series [3] (iv, 1 mg/kg). Besides, the half-life in series [3] (po, ig (intragastric), 3 mg/kg) is 4.11 h; in series [3] (setting [5]), 12.7 h; in series [3] (iv, 1 mg/kg) it was 5.56 h. Also, the clearance in series [3] (iv, 1 mg/kg) turned out to be 6.9 mL/min/kg. In addition, the Vd in series [3] (iv, 1 mg/kg) was 0.663 L/kg.
